System: A/NJ/15/2007 (H1N1 - H274Y)
Format: cell-based, influenza A virus

Cl.Cl.Nc1ncnc2c([C@@H]3N[C@H](CO)[C@@H](O)[C@H]3O)c[nH]c12 [compound 12i, (2S,3S,4R,5R)-2-(4-amino-5H-pyrrolo[3,2-d]pyrimidin-7-yl)-5-(hydroxymethyl)pyrrolidine-3,4-diol dihydrochloride]
EC50: 1.39 µg/mL

Reference: patent US9580428B2, “Compositions and methods for inhibiting viral polymerase” (priority 2012, dated 2017)
